Measured values: patent US20060074047A1, “Method of treating inflammation with inhibitors of sialyl transferases” (priority 2004, published 2006)
“Also recorded” adds a separate entry of the source.

What was measured:
[1] = tested on: polymorphonuclear leukocytes in the peritoneal fluid; experiment: In vivo IL-8 recruitment of PMNs to the peritoneal fluid; settings: mice; CMP intravenously 30 min before and 1 hr after IL-8 (150 ng/ml) intraperitoneally; counted at 2 hrs
Experimental: Mice are pre-treated intravenously with different doses of CMP 30 minutes before giving IL-8 (150 ng/ml) intraperitoneally to recruit polymorphonuclear leukocytes. This is followed with another dose of CMP one hr after the IL-8. Polymorphonuclear leukocytes in the peritoneal fluid of these mice are counted at 2 hrs after the IL-8, i.e., one hr after the second dose of CMP. The total polymorphonuclear leukocytes in the perioneal fluid of mice treated with CMP is compared with those given an equal volume of saline. It is contemplated that those receiving the CMP will have a lower number of polymorphonuclear leukocytes in the perioneal fluid.

[2] = tested on: polymorphonuclear leukocytes adhering to human microvascular endothelial cells (HMVEC); experiment: Adherence of resting PMNs to LPS-activated endothelial cells; format: cell-based; settings: CMP 2.5 mM for 5 minutes prior to stimulation; LPS 100 ng/ml for 4 hrs; FIG. 5
Experimental: In contrast, when the human microvascular endothelial cells, HMVECs, are treated with lipopolysaccharide, LPS, (100 ng/ml for 4 hrs) to activate them, resting polymorphonuclear leukocytes adhere better to the HMVECs. […] When polymorphonuclear leukocytes are activated with the tetrapeptide FMLP (1×10^−7 M/cyt b for 5 min.) they adhere better than do resting polymorphonuclear leukocytes (FIG. 5). At this later stage of PMN-EC interaction, sialyltransferase doesn't play a role. It is contemplated that CMP appears to work by inhibiting the initial binding of non-activated polymorphonuclear leukocytes to the ECs and also works at the late stage where polymorphonuclear leukocytes that have migrated through the EC monolayer are unable to move further to the inflammatory nidus.

[3] = tested on: endogenous sialyltransferase activity of human polymorphonuclear leukocytes; experiment: Sialyltransferase assay (flow cytometry), intact PMNs as endogenous ST source; format: cell-based
From the text: (§1) For the study of PMN ST activity, a previously described ST assay was adapted in which CMP-5-NANA served as the labeled sialyl residue donor and neuraminidase-treated RBCs as the sialyl residue acceptor (7). Based on preliminary studies, a standard reaction mixture contained a sialyl residue acceptor, either RBCs or polymorphonuclear leukocytes, CMP-5-NANA and a ST source. Purified α2,6-ST at a final concentration of 0.5 nU/ml, or polymorphonuclear leukocytes as an endogenous source of ST activity were used in a final volume of 100 μl cell incubation buffer (CIB) containing PBS plus 5 mg/ml BSA, pH 6.8. Sialyl residue acceptor SRBCs and polymorphonuclear leukocytes were desialylated with 25 mU/ml NANase/1-2×10^8/cells in 1 ml of CIB for 1 h at 37° C., washed once in CIB and used at 4×10^6 cells or at 8×10^6 cells respectively in a volume of 40 μl. When used as an endogenous source of ST activity, human polymorphonuclear leukocytes were adjusted to a stock concentration of 1×10^8 PMN/ml, lysed by freeze/thawing, centrifuged, and the protein concentration of the supernatant determined (Bio-Rad Laboratories, Hercules, Calif.). Intact human polymorphonuclear leukocytes at 8×10^6/0.1 ml assay volume were also used both as a source of ST activity as well as an acceptor of sialyl residues.
(§2) After gentle mixing, all tubes were incubated for 2 h at 37° C. in a humidified atmosphere containing 5% CO2. The cells were washed, pelleted and resuspended in CIB and analyzed fluorocytometrically on a FACScan II (Becton-Dickinson, Mountain View, Calif.). Based on forward and right angle light scatter properties, an electronic gate was placed around the RBCs or polymorphonuclear leukocytes which were excited at […] and emission measured at 530 nm. At least 10,000 events were recorded per condition. Data was analyzed with a CellQuest analysis program.
For each experiment, controls included omission of each of the components of the assay mixture, i.e., ST source, CMP-5 NANA or sialyl residue acceptor) as well as boiled, exogenous α2,6 ST. When indicated, 2-DN (0.04 mM, final concentration), an inhibitor of sialidase activity (8) was introduced to prevent the possible removal of the transferred sialyl residues. ST activity was measured after subtraction of background fluorescence, i.e., complete assay mixture minus either the exogenous ST or, for endogenous ST, in the presence and absence of the ST inhibitor, CMP (0.3 mM final concentration) and was expressed as % of maximal activity. For experiments in which it was estimated the endogenous ST activity, a standard curve was constructed using serial 2-fold dilutions of purified α2-6 ST enzyme from which tissue ST activity was interpolated, and expressed the ST activity as nU per μg protein.

[4] = tested on: human polymorphonuclear leukocytes migrating across human pulmonary artery endothelial cells (HPAEC); experiment: Transendothelial migration of PMNs across HPAEC monolayers in response to IL-8; format: cell-based; settings: 0.3 mM CMP; TNF-treated HPAEC monolayers, IL-8 150 ng/ml, 2 h; p<0.03
Experimental: FIG. 4 depicts inhibition of transendothelial cell migration by an ST inhibitor, cytidine monophosphate (CMP). Calcein AM-labeled human polymorphonuclear leukocytes were added to human pulmonary artery endothelial cells (HPAEC) pre-treated for 4 hrs with rTNF (50 U/ml). TEM was measured in response to IL-8 (150 ng/ml) over 2 hr as previously described (6) in the absence and presence of 0.3 mM CMP. 4 chambers/variable were studied. This figure is representative of 3 independent experiments.
The ability of human polymorphonuclear leukocytes to migrate across human pulmonary artery endothelial cell (HPAEC) monolayers in response to a chemotactic stimulus (IL-8) was measured as previously described (6). Only EC monolayers retaining […] of a ^14C-bovine serum albumen tracer were studied (i.e. no loss of barrier function). After treatment of HPAECs for 4 h with 25 U/ml TNFr, calcein AM (Molecular Probes, Eugene, Oreg.)-labeled human polymorphonuclear leukocytes (5×10^5 cells/well) were introduced into the upper compartments of the assay chambers, incubated for 2 h at 37° C., after which time each lower compartment was sampled and fluorometrically assayed. A standard curve was established for each experiment from which polymorphonuclear leukocyte numbers could be interpolated from fluorescence units and PMN TEM was expressed as % migration.

α2,6 sialyltransferase = α2,6 sialyltransferase (Photobacterium damselae, UniProt O66375); experiment: Sialyltransferase assay (flow cytometry), exogenous ST with PMNs as sialyl residue acceptors; format: cell-based, bacterial; settings: 0.3 mM CMP
Chain of α2,6 sialyltransferase (O66375 entry or part of it): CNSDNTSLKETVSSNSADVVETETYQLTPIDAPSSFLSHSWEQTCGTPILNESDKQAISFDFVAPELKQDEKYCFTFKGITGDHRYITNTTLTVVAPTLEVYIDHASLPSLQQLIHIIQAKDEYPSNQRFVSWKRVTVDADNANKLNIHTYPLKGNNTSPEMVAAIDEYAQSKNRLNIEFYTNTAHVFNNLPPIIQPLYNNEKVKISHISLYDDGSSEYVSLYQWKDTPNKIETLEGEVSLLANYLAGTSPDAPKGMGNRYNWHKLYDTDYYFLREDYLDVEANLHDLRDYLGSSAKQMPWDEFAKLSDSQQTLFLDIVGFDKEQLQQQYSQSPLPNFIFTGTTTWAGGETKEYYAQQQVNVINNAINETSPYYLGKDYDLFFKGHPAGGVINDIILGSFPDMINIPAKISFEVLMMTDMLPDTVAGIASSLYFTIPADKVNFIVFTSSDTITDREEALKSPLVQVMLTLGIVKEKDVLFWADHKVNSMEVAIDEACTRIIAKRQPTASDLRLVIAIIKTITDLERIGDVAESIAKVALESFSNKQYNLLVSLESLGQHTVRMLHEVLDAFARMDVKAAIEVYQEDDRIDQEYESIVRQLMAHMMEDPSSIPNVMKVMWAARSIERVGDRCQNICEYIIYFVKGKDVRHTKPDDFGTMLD
From the text: as §1, with “Sialyl residue acceptor SRBCs and polymorphonuclear leukocytes were desialylated with 25 mU/ml NANase/1-2×10^8/cells in 1 ml of CIB for 1 h at 37° C., washed once in CIB and used at 4×10^6 cells or at 8×10^6 cells respectively in a volume of 40 μl.” left out, “Intact human polymorphonuclear leukocytes at 8×10^6/0.1 ml assay volume were also used both as a source of ST activity as well as an acceptor of sialyl residues.” left out
as §2, with “Data was analyzed with a CellQuest analysis program.” left out

[5] = tested on: polymorphonuclear leukocytes; experiment: Preliminary tests of CMP toxicity to PMNs; format: cell-based, human; settings: 0.3 mM CMP

| Structure (SMILES) | number of polymorphonuclear leukocytes in the peritoneal fluid vs saline [1] | adherence of resting PMNs to LPS-treated HMVECs [2] | inhibition of ST activity in vitro ([3]; 0.3 mM CMP, preliminary tests) | MFI (mean fluorescence intensity) with CMP ([3]; FIG. 2C: neuraminidase-pretreated PMNs + intact untreated PMNs as endogenous ST source, 0.3 mM CMP, MFI 295 without CMP) | MFI (mean fluorescence intensity) with CMP ([3]; FIG. 2D: intact untreated PMNs added to PMNs not exposed to neuraminidase, 0.3 mM CMP, MFI 266 without CMP) | mean fluorescence intensity (MFI) after CMP treatment ([3]; FIG. 3A: PMNs (8×10^6), 10 μM CMP-NANA, 0.3 mM CMP, MFI 364 without CMP) | inhibition of TEM (transendothelial migration) [4] [%] | MFI (mean fluorescence intensity) with CMP (α2,6 sialyltransferase; FIG. 2A: neuraminidase-pretreated PMNs + exogenous sialyltransferase, MFI 406 without CMP) | MFI (mean fluorescence intensity) with CMP (α2,6 sialyltransferase; FIG. 2B: PMNs unexposed to neuraminidase + exogenous sialyltransferase, MFI 310 without CMP) | toxicity to the polymorphonuclear leukocytes [5] | MFI (ST activity) in presence of sialidase inhibitor 2-DN ([3]; FIG. 3B: intact untreated PMNs, 2-DN 0.04 mM final concentration, MFI 364 without 2-DN) |
| --- | --- | --- | --- | --- | --- | --- | --- | --- | --- | --- | --- |
| Nc1ccn([C@@H]2O[C@H](COP(=O)(O)O)[C@@H](O)[C@H]2O)c(=O)n1 [CMP, cytidine 5′-monophosphate] | lower number | inhibits the initial binding; also recorded: decreased adherence | fully inhibited | 141 | 131 | 222 | > 40 | 165 | 167 | not toxic |  |
| CC(=O)N[C@H]1[C@H]([C@H](O)[C@H](O)CO)OC(C(=O)O)=C[C@@H]1O [2-DN, 2,3 deoxy-N-acetyl neuraminic acid] |  |  |  |  |  |  |  |  |  |  | 317 |
